Laboratory results published in patent US11629201B2, “PSMA-binding agents and uses thereof” (ITM Isotope Technologies Munich SE, priority 2017, dated 2023).
Several values for one entry are separate records, joined by “and”; a condition that tells them apart may be missing. Equal entries are not always repeated.

Legend:
[1] = system: PSMA-positive PC-3 PIP cells; assay: Cell uptake and internalization in PSMA-positive PC-3 PIP cells; type: cell-based
mouse plasma proteins = assay: Ultrafiltration assay, binding to mouse plasma proteins; type: in vitro ADME
Method: Filter Assay. […] In addition, the radioligands were diluted in PBS (buffer solution without proteins) as a control experiment. Aliquots of the solutions were loaded onto an ultrafiltration device and centrifuged. The filtered activity was measured with a γ-counter and used for calculating the plasma protein-bound activity (retained on the filter membrane) as the percentage of total added activity. […] Statistical analysis (one-way ANOVA with Bonferroni's multiple comparison post-test) was performed using GraphPad Prism software, version 7. A p-value of <0.05 was considered statistically significant.

human plasma proteins = assay: Ultrafiltration assay, binding to human plasma proteins; details: human plasma, ultrafiltration
Method: Therefore, the compounds were labeled with ^177Lu at a specific activity of 50 MBq/nmol and incubated in human plasma samples or PBS at room temperature. The free and plasma-bound fractions were separated using a centrifree ultrafiltration device (4104 centrifugal filter units [Millipore]; 30000 Da nominal molecular weight limit, methylcellulose micropartition membranes). The incubated solution was loaded to the ultrafiltration device and centrifuged at 2500 rpm for 40 min at 20° C. Samples from the filtrate were taken an analyzed for radioactivity in a gamma-counter. The amount of plasma-bound compound was calculated as the fraction of radioactivity measured in the filtrate relative to the corresponding loading solution (set to 100%).
Determination of Albumin-binding Properties. The binding of the radioligands to human plasma proteins was determined by an ultrafiltration assay. […] Three independent experiments were performed in duplicates with both radioligands and the data was fitted to a semi-logarithmic plot (non-linear regression, one-site, specific binding) to obtain the half maximum binding (B50) in GraphPad Prism software (version 7).
The ^177Lu-labeled PSMA ligands (50 MBq/nmol) were diluted in mouse plasma (Rockland, USA) and human plasma (Stiftung Blutspende SRK Aargau-Solothurn, Switzerland), respectively, and incubated for 15 min at room temperature. In addition, the radioligands were diluted in PBS (buffer solution without proteins) as a control experiment. Aliquots of the solutions were loaded onto an ultrafiltration device and centrifuged. The filtered activity was measured with a γ-counter and used for calculating the plasma protein-bound activity (retained on the filter membrane) as the percentage of total added activity. […] Statistical analysis (one-way ANOVA with Bonferroni's multiple comparison post-test) was performed using GraphPad Prism software, version 7. A p-value of <0.05 was considered statistically significant.

[2] = system: PC-3 PIP/flu tumor-bearing mice; assay: Biodistribution studies in PC-3 PIP/flu tumor-bearing mice; details: for Tumor-to-blood / Tumor-to-kidney / Tumor-to-liver: PC-3 PIP tumor
[3] = non-decay-corrected biodistribution data up to 192 h p.i.

Q: Which cell uptake ([1]; 2 h) does the source give for `O=C(O)CCC(NC(=O)NC(CCCCNC(=O)C(Cc1ccc2ccccc2c1)NC(=O)C1CCC(CNC(=O)C(CCCCNC(=O)CN2CCN(CC(=O)O)CCN(CC(=O)O)CCN(CC(=O)O)CC2)NC(=O)CC(NC(=O)CC(NC(=O)CCCc2ccc(I)cc2)C(=O)O)C(=O)O)CC1)C(=O)O)C(=O)O` (stereo not shown) [^177Lu-PSMA-ALB-05, metal not drawn] here?
A: 52-57%

Q: And the internalized fraction ([1]; 2 h)?
A: 18-24%

Q: What about the cell uptake ([1]; 4 h) of the same molecule?
A: 60-63%

Q: And the internalized fraction ([1]; 4 h)?
A: 20-26%

Q: And the plasma protein-bound fraction (mouse plasma proteins)?
A: 77±2.1%

Q: What about the plasma protein-bound fraction (human plasma proteins) of the same molecule?
A: 95±0.6%

Q: What about the Tumor-to-blood ([2]; 1 h p.i.) of the same molecule?
A: 2.31 ± 0.58

Q: What about the Tumor-to-kidney ([2]; 1 h p.i.) of the same molecule?
A: 0.79 ± 0.02

Q: What about the Tumor-to-liver ([2]; 1 h p.i.) of the same molecule?
A: 8.65 ± 2.21

Q: What about the Blood ([2]; 4 h p.i.) of the same molecule?
A: 10.2 ± 1.98 % IA/g

Q: And the Bone ([2]; 4 h p.i.)?
A: 1.67 ± 0.27 % IA/g

Q: What about the Heart ([2]; 4 h p.i.) of the same molecule?
A: 3.82 ± 0.63 % IA/g

Q: What about the Intestines ([2]; 4 h p.i.) of the same molecule?
A: 1.33 ± 0.25 % IA/g

Q: And the Kidneys ([2]; 4 h p.i.)?
A: 52.8 ± 7.17 % IA/g

Q: What about the Liver ([2]; 4 h p.i.) of the same molecule?
A: 2.96 ± 0.50 % IA/g

Q: What about the Lung ([2]; 4 h p.i.) of the same molecule?
A: 7.07 ± 1.44 % IA/g

Q: And the Muscle ([2]; 4 h p.i.)?
A: 1.30 ± 0.23 % IA/g

Q: And the “PC-3 PIP Tumor” value ([2]; 4 h p.i.)?
A: 75.3 ± 15.3 % IA/g

Q: What about the “PC-3 flu Tumor” value ([2]; 4 h p.i.) of the same molecule?
A: 2.10 ± 0.20 % IA/g

Q: What about the Salivary glands ([2]; 4 h p.i.) of the same molecule?
A: 2.75 ± 0.72 % IA/g

Q: What about the Spleen ([2]; 4 h p.i.) of the same molecule?
A: 3.29 ± 0.74 % IA/g

Q: And the Stomach ([2]; 4 h p.i.)?
A: 1.15 ± 0.17 % IA/g

Q: What about the Tumor-to-blood ([2]; 4 h p.i.) of the same molecule?
A: 7.43 ± 1.43

Q: What about the Tumor-to-kidney ([2]; 4 h p.i.) of the same molecule?
A: 1.42 ± 0.19

Q: And the Tumor-to-liver ([2]; 4 h p.i.)?
A: 25.6 ± 4.58

Q: What about the Blood ([2]; 24 h p.i.) of the same molecule?
A: 1.67 ± 0.29 % IA/g

Q: What about the Bone ([2]; 24 h p.i.) of the same molecule?
A: 0.31 ± 0.08 % IA/g

Q: And the Heart ([2]; 24 h p.i.)?
A: 0.65 ± 0.11 % IA/g

Q: What about the Intestines ([2]; 24 h p.i.) of the same molecule?
A: 0.28 ± 0.05 % IA/g

Q: And the Kidneys ([2]; 24 h p.i.)?
A: 23.9 ± 4.02 % IA/g

Q: And the Liver ([2]; 24 h p.i.)?
A: 0.82 ± 0.35 % IA/g

Q: What about the Lung ([2]; 24 h p.i.) of the same molecule?
A: 1.80 ± 0.78 % IA/g

Q: And the Muscle ([2]; 24 h p.i.)?
A: 0.19 ± 0.06 % IA/g

Q: And the “PC-3 PIP Tumor” value ([2]; 24 h p.i.)?
A: 79.4 ± 11.1 % IA/g

Q: What about the “PC-3 flu Tumor” value ([2]; 24 h p.i.) of the same molecule?
A: 0.59 ± 0.10 % IA/g

Q: And the Salivary glands ([2]; 24 h p.i.)?
A: 0.49 ± 0.10 % IA/g

Q: What about the Spleen ([2]; 24 h p.i.) of the same molecule?
A: 1.13 ± 0.23 % IA/g

Q: And the Stomach ([2]; 24 h p.i.)?
A: 0.28 ± 0.06 % IA/g

Q: What about the Tumor-to-blood ([2]; 24 h p.i.) of the same molecule?
A: 48.2 ± 7.04 and 48 ± 6.4

Q: What about the Tumor-to-kidney ([2]; 24 h p.i.) of the same molecule?
A: 3.38 ± 0.58 and 3.4 ± 0.5

Q: What about the Tumor-to-liver ([2]; 24 h p.i.) of the same molecule?
A: 106 ± 28.6 and 106 ± 26

Q: What about the Blood ([2]; 48 h p.i.) of the same molecule?
A: 1.66 ± 0.37 % IA/g

Q: What about the Bone ([2]; 48 h p.i.) of the same molecule?
A: 0.28 ± 0.05 % IA/g

Q: And the Heart ([2]; 48 h p.i.)?
A: 0.54 ± 0.15 % IA/g

Q: What about the Intestines ([2]; 48 h p.i.) of the same molecule?
A: 0.28 ± 0.10 % IA/g

Q: What about the Kidneys ([2]; 48 h p.i.) of the same molecule?
A: 12.8 ± 2.62 % IA/g

Q: What about the Liver ([2]; 48 h p.i.) of the same molecule?
A: 0.56 ± 0.16 % IA/g

Q: What about the Lung ([2]; 48 h p.i.) of the same molecule?
A: 1.48 ± 0.62 % IA/g

Q: And the Muscle ([2]; 48 h p.i.)?
A: 0.20 ± 0.08 % IA/g

Q: What about the “PC-3 PIP Tumor” value ([2]; 48 h p.i.) of the same molecule?
A: 60.3 ± 10.7 % IA/g

Q: And the “PC-3 flu Tumor” value ([2]; 48 h p.i.)?
A: 0.57 ± 0.09 % IA/g

Q: What about the Salivary glands ([2]; 48 h p.i.) of the same molecule?
A: 0.45 ± 0.10 % IA/g

Q: What about the Spleen ([2]; 48 h p.i.) of the same molecule?
A: 0.71 ± 0.23 % IA/g

Q: What about the Stomach ([2]; 48 h p.i.) of the same molecule?
A: 0.29 ± 0.08 % IA/g

Q: And the Tumor-to-blood ([2]; 48 h p.i.)?
A: 36.7 ± 1.81 and 38 ± 2.5

Q: And the Tumor-to-kidney ([2]; 48 h p.i.)?
A: 4.72 ± 0.18 and 5.0 ± 0.7

Q: What about the Tumor-to-liver ([2]; 48 h p.i.) of the same molecule?
A: 110 ± 12.2 and 100 ± 32

Q: What about the Blood ([2]; 96 h p.i.) of the same molecule?
A: 1.79 ± 0.57 % IA/g

Q: And the Bone ([2]; 96 h p.i.)?
A: 0.28 ± 0.04 % IA/g

Q: What about the Heart ([2]; 96 h p.i.) of the same molecule?
A: 0.70 ± 0.21 % IA/g

Q: What about the Intestines ([2]; 96 h p.i.) of the same molecule?
A: 0.30 ± 0.11 % IA/g

Q: And the Kidneys ([2]; 96 h p.i.)?
A: 6.89 ± 0.31 % IA/g

Q: And the Liver ([2]; 96 h p.i.)?
A: 0.74 ± 0.14 % IA/g

Q: And the Lung ([2]; 96 h p.i.)?
A: 1.36 ± 0.29 % IA/g

Q: And the Muscle ([2]; 96 h p.i.)?
A: 0.15 ± 0.06 % IA/g

Q: What about the “PC-3 PIP Tumor” value ([2]; 96 h p.i.) of the same molecule?
A: 45.0 ± 7.94 % IA/g

Q: And the “PC-3 flu Tumor” value ([2]; 96 h p.i.)?
A: 0.49 ± 0.11 % IA/g

Q: And the Salivary glands ([2]; 96 h p.i.)?
A: 0.46 ± 0.10 % IA/g

Q: What about the Spleen ([2]; 96 h p.i.) of the same molecule?
A: 0.64 ± 0.29 % IA/g

Q: What about the Stomach ([2]; 96 h p.i.) of the same molecule?
A: 0.24 ± 0.07 % IA/g

Q: And the Tumor-to-blood ([2]; 96 h p.i.)?
A: 27.1 ± 10.0

Q: And the Tumor-to-kidney ([2]; 96 h p.i.)?
A: 6.51 ± 0.98

Q: And the Tumor-to-liver ([2]; 96 h p.i.)?
A: 62.8 ± 18.8

Q: And the Blood ([2]; 144 h p.i.)?
A: 1.75 ± 0.35 % IA/g

Q: And the Bone ([2]; 144 h p.i.)?
A: 0.25 ± 0.05 % IA/g

Q: What about the Heart ([2]; 144 h p.i.) of the same molecule?
A: 0.65 ± 0.17 % IA/g

Q: And the Intestines ([2]; 144 h p.i.)?
A: 0.27 ± 0.05 % IA/g

Q: What about the Kidneys ([2]; 144 h p.i.) of the same molecule?
A: 4.28 ± 0.26 % IA/g

Q: What about the Liver ([2]; 144 h p.i.) of the same molecule?
A: 0.72 ± 0.13 % IA/g

Q: What about the Lung ([2]; 144 h p.i.) of the same molecule?
A: 1.25 ± 0.18 % IA/g

Q: What about the Muscle ([2]; 144 h p.i.) of the same molecule?
A: 0.17 ± 0.04 % IA/g

Q: What about the “PC-3 PIP Tumor” value ([2]; 144 h p.i.) of the same molecule?
A: 33.9 ± 0.80 % IA/g

Q: What about the “PC-3 flu Tumor” value ([2]; 144 h p.i.) of the same molecule?
A: 0.52 ± 0.13 % IA/g

Q: What about the Salivary glands ([2]; 144 h p.i.) of the same molecule?
A: 0.46 ± 0.09 % IA/g

Q: And the Spleen ([2]; 144 h p.i.)?
A: 0.56 ± 0.08 % IA/g

Q: And the Stomach ([2]; 144 h p.i.)?
A: 0.23 ± 0.04 % IA/g

Q: What about the Tumor-to-blood ([2]; 144 h p.i.) of the same molecule?
A: 19.9 ± 3.88

Q: What about the Tumor-to-kidney ([2]; 144 h p.i.) of the same molecule?
A: 7.93 ± 0.30

Q: What about the Tumor-to-liver ([2]; 144 h p.i.) of the same molecule?
A: 47.9 ± 8.28

Q: What about the Blood ([2]; 192 h p.i.) of the same molecule?
A: 1.48 ± 0.13 % IA/g

Q: What about the Bone ([2]; 192 h p.i.) of the same molecule?
A: 0.26 ± 0.04 % IA/g

Q: What about the Heart ([2]; 192 h p.i.) of the same molecule?
A: 0.59 ± 0.05 % IA/g

Q: And the Intestines ([2]; 192 h p.i.)?
A: 0.24 ± 0.04 % IA/g

Q: What about the Kidneys ([2]; 192 h p.i.) of the same molecule?
A: 2.70 ± 0.36 % IA/g

Q: And the Liver ([2]; 192 h p.i.)?
A: 0.84 ± 0.06 % IA/g

Q: What about the Lung ([2]; 192 h p.i.) of the same molecule?
A: 1.22 ± 0.26 % IA/g

Q: And the Muscle ([2]; 192 h p.i.)?
A: 0.14 ± 0.01 % IA/g

Q: And the “PC-3 PIP Tumor” value ([2]; 192 h p.i.)?
A: 27.9 ± 3.24 % IA/g

Q: And the “PC-3 flu Tumor” value ([2]; 192 h p.i.)?
A: 0.45 ± 0.06 % IA/g

Q: And the Salivary glands ([2]; 192 h p.i.)?
A: 0.37 ± 0.04 % IA/g

Q: What about the Spleen ([2]; 192 h p.i.) of the same molecule?
A: 0.55 ± 0.10 % IA/g

Q: What about the Stomach ([2]; 192 h p.i.) of the same molecule?
A: 0.16 ± 0.04 % IA/g

Q: What about the Tumor-to-blood ([2]; 192 h p.i.) of the same molecule?
A: 19.0 ± 2.97

Q: What about the Tumor-to-kidney ([2]; 192 h p.i.) of the same molecule?
A: 10.4 ± 0.25

Q: And the Tumor-to-liver ([2]; 192 h p.i.)?
A: 33.4 ± 1.64

Q: What about the “AUC PC-3 PIP tumor” value [2, 3] of the same molecule?
A: 6741 ± 421 % IA/g · h

Q: And the AUC blood [2, 3]?
A: 387 ± 32 % IA/g · h

Q: What about the AUC kidneys [2, 3] of the same molecule?
A: 1837 ± 112 % IA/g · h

Q: And the AUC liver [2, 3]?
A: 131 ± 11 % IA/g · h

Q: What about the “Ratio of AUCs AUCTu-to-AUCBl” value ([2]; tumor to blood) of the same molecule?
A: 17

Q: What about the “Ratio of AUCs AUC-Tu-to-AUC-Ki” value ([2]; tumor to kidneys) of the same molecule?
A: 3.7

Q: And the “Ratio of AUCs AUCTu-to-AUCLi” value ([2]; tumor to liver)?
A: 52
